Results: PMC9143577, “Cationic Geminoid Peptide Amphiphiles Inhibit DENV2 Protease, Furin, and Viral Replication” (Molecules, 2022)
Where a SMILES comes first, the peptide text is derived from it. The star is where a group is joined. Palmitoyl = CCCCCCCCCCCCCCCC(=O)*; NHhexadecyl = CCCCCCCCCCCCCCCCN*

B1: C15H31C(O)-Lys-(Gly)2-Lys-NHC16H33 (C16-KG2K-C16) (peptide)
peptide: Palmitoyl-KGGK-NHhexadecyl
SMILES: CCCCCCCCCCCCCCCCNC(=O)[C@H](CCCCN)NC(=O)CNC(=O)CNC(=O)[C@H](CCCCN)NC(=O)CCCCCCCCCCCCCCC
B2: C15H31C(O)-Lys-(Ala)2-Lys-NHC16H33 (C16-KA2K-C16) (peptide)
peptide: Palmitoyl-KAAK-NHhexadecyl
SMILES: CCCCCCCCCCCCCCCCNC(=O)[C@H](CCCCN)NC(=O)[C@H](C)NC(=O)[C@H](C)NC(=O)[C@H](CCCCN)NC(=O)CCCCCCCCCCCCCCC

How the values were obtained:
[1] = target: DENV2 protease (Dengue virus type 2, UniProt P14340); assay: biochemical
Sequence of DENV2 protease (P14340 1476-1653): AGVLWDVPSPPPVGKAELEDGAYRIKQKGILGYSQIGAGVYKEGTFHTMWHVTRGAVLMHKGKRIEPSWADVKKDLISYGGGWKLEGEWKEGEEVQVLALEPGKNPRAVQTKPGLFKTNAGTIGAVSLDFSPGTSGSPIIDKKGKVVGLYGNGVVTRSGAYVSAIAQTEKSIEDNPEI
Sequence of DENV2 protease (P14340 1398-1437): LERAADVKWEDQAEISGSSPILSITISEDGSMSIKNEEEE
Protocol: IC50 values were determined in CDD Vault using the Levenberg–Marquardt algorithm for fitting a Hill equation to dose-response data.
(§1) Enzyme expression and purification
DENV2 Protease Preparation. The enzyme was expressed and purified as previously described (ref. S1). Briefly, the vector with CF40 fused to NS3pro was used for high- level inducible expression of recombinant enzyme, tagged on the N-t erminus with hexahistidine. E. coli strain SG13009 cells were transformed with the expression plasmid and grown in kanamycin at 37 °C until the absorb ance at 600 nm r each ed a v alue of 0.6. Cells were induced for expression by the addition of isopropyl-β-D-thiogalactopyranose to a final concentration of 1 mM and incubated for additional 3 h at 30 °C. The cells were harvested by centrifugation, resuspended in 1 mL of a lysis buffer, subjected to sonication, and centrifuged again. The supernatant was collected and passed through a 2- mL column of nitrilotriacetic acid-agarose (Qiagen) loaded with Ni2+. The column was extensively washed with buffer containing […], and the protein was then eluted from then column in buffer containing 100 mM imidazole.
Elution samples were analyzed by 15% SDS-PAGE and the substrate Z-RR- MCA was used to distinguish the activity of DENV2 protease from that of contaminating bacterial […]
proteases. […]

[2] = target: DENV2 protease (NS2B-NS3 construct CF40-…-NS3) (dengue virus serotype 2)
[3] = target: trypsin
[4] = target: T1, human furin (Homo sapiens, UniProt P09958); assay: Furin inhibition assay with MCA substrate (Ac-RVRR-MCA); format: biochemical; details: 0.76 nM furin, pH 7.0, 37 °C, read-out: IC50 (MCA Substrates) Furin
Excerpt: as §1
Target sequence in this assay (P09958 108-576 limits assumed): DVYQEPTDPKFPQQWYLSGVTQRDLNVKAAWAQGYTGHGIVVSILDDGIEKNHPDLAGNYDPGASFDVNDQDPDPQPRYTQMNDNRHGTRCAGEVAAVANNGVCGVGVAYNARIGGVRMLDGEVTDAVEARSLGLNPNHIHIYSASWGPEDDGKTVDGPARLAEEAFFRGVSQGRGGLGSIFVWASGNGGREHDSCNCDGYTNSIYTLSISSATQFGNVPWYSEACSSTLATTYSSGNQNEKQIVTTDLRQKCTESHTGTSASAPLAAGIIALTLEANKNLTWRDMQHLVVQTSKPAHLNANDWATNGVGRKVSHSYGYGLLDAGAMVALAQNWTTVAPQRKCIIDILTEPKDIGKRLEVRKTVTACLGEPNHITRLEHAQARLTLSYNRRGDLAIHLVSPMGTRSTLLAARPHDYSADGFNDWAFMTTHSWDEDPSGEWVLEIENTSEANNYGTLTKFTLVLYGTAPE
DENV2 Protease Preparation. The enzyme was expressed and purified as previously described (ref. S1). […]
subjected to sonication, and centrifuged again. The supernatant was collected and passed […]
Human Furin Preparation. The enzyme was expressed and purified as previously described (ref. S3). Briefly, The PCMV-Fur_S vector containing cDNA […]
Human furin was purifi ed […]
substrate Abz-[…]- EDDnp.

[5] = system: DENV2 replicon; details: DENV2 HeLa replicon cells treated for 2 days; for inhibition of luciferase activity (DENV2 replicon): 10 µM
Protocol: To investigate the effect of geminoids on viral replication, we used HeLa cells containing a DENV2 replicon. Instead of the structural proteins of DENV2, the replicon encodes a luciferase reporter that can be used as a readout for DENV2 protease dependent virus replication. Cell viability was assessed on the same cells using a colourimetric assay based on 3-(4,5-dimethylthiazol-2-yl)-5-(3-carboxymethoxyphenyl)-2H-tetrazolium (MTS) reduction, and by light microscopy. […] The viability of unmodified HeLa cells after treatment with these compounds was also tested in a separate experiment using the Celltiter Blue Viability Assay (Promega, see Supporting Information) in the concentration range of 0.8–50 μM.
The replicon assay was carried out as described earlier using HeLa cells that contain a stably replicating DENV2 replicon expressing a luciferase reporter gene. The amphiphilic inhibitors were added as concentrated solutions in DMSO; the same amount of DMSO was used as the blank experiment, with the viral inhibitor ribavirin as a positive control. Luciferase activity and cell viability were assessed as described previously.

[6] = system: trypsin; assay: Trypsin inhibition assay with Z-FR-MCA; format: biochemical; details: 4 nM trypsin, 11.4 μM Z-FR-MCA; 100 mM Tris.HCl, pH 8.0, 10 mM CaCl2; read-out: IC50 (MCA Substrates) Trypsin
Protocol: The assay was carried out in 100 mM Tris.HCl, 10 mM CaCl2, pH 8.0, with 4 nM enzyme and 11.4 µM Z-FR-MCA substrate.

[7] = Critical micelle concentration by pyrene fluorescence; format: physicochemical; details: pure water
Protocol: Pyrene was used as a probe to study the changes in its fluorescence, in particular the ratio (I1/I3) of the intensities I1 and I3 […] 373 and 383 nm, respectively. An abrupt change in this ratio with increasing surfactant concentration points to an increase in hydrophobicity of the environment of the probe corresponding to the formation of aggregates. See Supporting Information for details.
Determ ination of the critical m icelle concentrat ion (CMC)
A solution of 5 mg pyrene in methanol (10 mL) was prepared and diluted 20 times. 50 µ L from the dil uted solution was added to geminoid solutions in water to a final volume of 3 mL. The geminoid samples were made from a stock solution of 500 µ M in water in a concentration range from 5 to 200 µ M. The fluorescence spectra were then measured after 1 hour wi th the […] set to 334 nm and emission range 350- 500 nm, excitation slit […], emission slit […] and at 25 °C. The ratio of the intensities was then plotted against the geminoid concentration, and the CMC is calculated from the intersection point of the best fits to the data points below and above it (Fig ure S5).
Concentration (µM) Concentration (µM)
Concentration (µM)Concentration (µM) Concentration (µM)Concentration (µM)
(1 picture or pasted object on this page, not shown here)

[8] = system: wildtype DENV2 (DENV2 NGC); format: cell-based, DENV2 New Guinea strain; details: LLC-MK2 cells, percentage of infected cells, 2 days after infection, read-out: DENV Replication in LLC-MK2 Cells EC50
Protocol: LLC-MK2 (Monkey Rhesus Kidney cells; CCL-7.1) were passaged in assay medium (EMEM (Lonza Cat No: BESP069F) supplemented with 10% heat-inactivated FCS (Lonza), 2% Pen/strep (Gibco), 2% L-Glutamine (Gibco), 2% Hepes (Lonza), and 1% sodium bicarbonate (Lonza)) prior to use in the antiviral assay. Cells were seeded in 96-well plates (10^5 cells/well) in assay medium to be exposed 16–24 h later to compounds and viruses. The plates were incubated at 37 °C/5% CO2 overnight to allow for cell adherence.
Compounds were solubilized in DMSO and evaluated using two-fold serial dilutions (8-points dose-response curves starting at a concentration of 50 µM) in duplicate for the antiviral assays. Compounds were diluted in assay medium at 1× test concentrations. Ribavirin (Sigma Aldrich, Amsterdam, The Netherlands) was evaluated as a positive control compound in the antiviral assays.
DENV2 New Guinea strain was grown in AP-61 insect cells (in-house cell bank) in complete Leibovitz medium containing 1% pen/strep (Gibco), 1% L-glutamin (Gibco), 0.5% Hepes (Lonza), 0.5% sodium bicarbonate (Lonza), and 10% tryptose phosphate for the production of stock virus pools. On the day of cellular infection, an aliquot of virus was removed from the freezer (−80 °C) and allowed to thaw in water in a biological safety cabinet. Virus was diluted into assay medium (10^4 TCID50), and 100 µL of this was added to each well, resulting in a TCID50 of 100. Cells were incubated for 2 h at 37 °C/5% CO2 and washed 3 times with blank assay medium. Directly after washing, 100 µL of the compound dilutions were added to each well.
Each plate contained cell control wells (cells only), virus control wells (cells plus virus), duplicate drug toxicity wells per compound (cells plus drug only), as well as duplicate experimental wells (drug plus cells plus virus).
Virus-infected cells were visualised using a DENV2 immunoperoxidase staining protocol. Two days after infection, cells were inactivated with ethanol 70% for 30 min and washed with PBS. Fixed plates were incubated with PBS containing 0.05% H2O2 for 20 min at 37 °C and washed again 3 times with PBS. Plates were incubated for 1 h with 50 µL monoclonal anti-DENV-2 NS1 antibody (Millipore; diluted 1:500 in EMEM). Samples were washed once with PBS containing 0.05% Tween20 and twice with PBS only. Secondary polyclonal goat anti-mouse IgG HRP (Dako; diluted 1:2000) was added 50 µL per well and incubated for 1 h at 37 °C in the dark. […] Bidest water was added after removal of the substrate solution, and all virus-positive cells per well (marked by brown/red staining) were counted under a microscope. […]

[9] = target: T1, human furin
Target sequence in this assay (P09958 27-794): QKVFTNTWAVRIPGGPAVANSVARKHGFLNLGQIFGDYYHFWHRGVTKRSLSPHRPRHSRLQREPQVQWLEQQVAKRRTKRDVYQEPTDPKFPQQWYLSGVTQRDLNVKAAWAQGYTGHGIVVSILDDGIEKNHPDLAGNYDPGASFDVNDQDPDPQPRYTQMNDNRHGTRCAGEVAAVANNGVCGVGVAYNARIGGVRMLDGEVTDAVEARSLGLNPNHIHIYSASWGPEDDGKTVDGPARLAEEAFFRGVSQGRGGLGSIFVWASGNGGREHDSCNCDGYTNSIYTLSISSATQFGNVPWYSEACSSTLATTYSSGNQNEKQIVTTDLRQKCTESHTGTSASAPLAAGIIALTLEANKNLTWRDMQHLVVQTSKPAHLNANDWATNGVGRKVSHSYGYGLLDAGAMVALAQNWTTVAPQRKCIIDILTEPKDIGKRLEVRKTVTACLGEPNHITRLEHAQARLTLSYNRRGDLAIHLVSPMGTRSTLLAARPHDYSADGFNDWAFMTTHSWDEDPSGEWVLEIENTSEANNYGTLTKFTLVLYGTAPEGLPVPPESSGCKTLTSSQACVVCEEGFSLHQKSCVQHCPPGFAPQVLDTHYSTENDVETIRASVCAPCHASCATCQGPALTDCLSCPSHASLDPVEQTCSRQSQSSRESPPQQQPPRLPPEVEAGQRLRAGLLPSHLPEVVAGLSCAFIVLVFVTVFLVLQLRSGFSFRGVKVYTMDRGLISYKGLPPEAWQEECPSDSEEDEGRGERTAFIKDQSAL

Molecule	IC50 of inhibition of DENV2 protease activity (20 nM enzyme, substrate Z-RR-MCA, 50 mM Tris.HCl pH 9.0, 20% glycerol, 37 °C) [2] [µM]	IC50 of inhibition of DENV2 protease activity (50 µM Tyr(3-NO2) substrate, 50 mM Tris.HCl pH 9.0, 10% ethylene glycol, 0.0016% Brij 58) [2] [µM]	IC50 of inhibition of trypsin activity (4 nM trypsin, 11.4 µM Z-FR-MCA, 100 mM Tris.HCl pH 8.0, 10 mM CaCl2) [3] [µM]	IC50 [4] [µM]	inhibition of luciferase activity (DENV2 replicon) [5] [%]	IC50 [6] [µM]	CMC (Critical Micelle Concentration) [7] [µM]	EC50 [8] [µM]	other results
CCCCCCCCCCCCCCCCNC(=O)[C@H](CCCCN)NC(=O)[C@H](CCCCN)NC(=O)CCCCCCCCCCCCCCC [Compound 1]									IC50 [1]: 4.25 ± 0.27 µM
C15H31C(O)-Lys-(Gly)-Lys-NHC16H33 (C16-KGK-C16) (peptide)	1.94	2.1	41						
CCCCCCCCCCCCCCCCNC(=O)[C@H](CCCCN)NC(=O)[C@H](C)NC(=O)[C@H](C)NC(=O)[C@H](CCCCN)NC(=O)CCCCCCCCCCCCCCC [Compound 2b, C15H31C(O)-Lys-(Ala)2-Lys-NHC16H33.2TFA] (Palmitoyl-KAAK-NHhexadecyl)				2.14 ± 0.1	47	20.9 ± 0.34	41	3.1 ± 0.7	
CCCCCCCCCCCCCCCCNC(=O)[C@H](CCCCN)NC(=O)[C@H](C)NC(=O)[C@H](CCCCN)NC(=O)CCCCCCCCCCCCCCC [Compound 2a, C15H31C(O)-Lys-(Ala)-Lys-NHC16H33.2TFA]				3.57 ± 0.18	62	17.2 ± 0.66	48 to 58	4.1 ± 1.5	reduction of luciferase activity ([5]; 3 µM): 39%
B1	3.69	10.2							
B2	0.8	1.4	20.9						IC50 of inhibition of furin activity (0.76 nM furin, substrate Ac-RVRR-MCA, 10 mM MES pH 7.0, 37 °C) [9]: 2.14 µM
